Like-named read-outs stand apart in the source and are kept apart here.
Molecular target: RORγ-LBD (Homo sapiens (Human), UniProt P51449)
Experiment: LanthaScreen TR-FRET screening of RORγ-LBD / co-activator (Fluorescein-D22) interaction
[1] = read-out: IC50 Values, TR-FRET, 2 nM RORγ-LBD, 150 nM Fluorescein-D22 co-activator

Chain of RORγ-LBD (P51449 269-508): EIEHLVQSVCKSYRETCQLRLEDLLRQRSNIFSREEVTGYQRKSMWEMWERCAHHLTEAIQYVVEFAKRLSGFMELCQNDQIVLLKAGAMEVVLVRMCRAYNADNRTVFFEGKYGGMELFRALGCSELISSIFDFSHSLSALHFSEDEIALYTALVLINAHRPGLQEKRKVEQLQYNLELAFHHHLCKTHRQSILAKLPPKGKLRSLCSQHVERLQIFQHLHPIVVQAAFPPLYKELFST

SMILES | IC50 [nM] | IC50 [1] [nM]
Cc1cccc2c1/C(=C\c1c(Cl)cccc1C1CC1)C(=O)N2c1ccc(C(=O)O)cc1 [Example 2B, (trans)-4-(3-(2-chloro-6-cyclopropyl-benzylidene)-4-methylindolin-2-on-1-yl)-benzoic acid] | 100 to 1000 | 
Cc1cccc2c1/C(=C/c1c(Cl)cccc1Cl)C(=O)N2c1ccc(C(=O)O)cc1 [Example 5, (trans)-4-(3-(2,6-dichlorobenzylidene)-4-methylindolin-2-on-1-yl)-benzoic acid] |  | < 100
Cc1cccc2c1/C(=C/c1c(Cl)cccc1C(F)(F)F)C(=O)N2c1ccc(C(=O)O)c(O)c1 [Example 6, (trans)-4-(3-(2-chloro-6-(trifluoromethyl)-benzylidene)-4-methylindolin-2-on-1-yl)-2-hydroxybenzoic acid] |  | < 100
Cc1cccc2c1/C(=C/c1c(Cl)cccc1Br)C(=O)N2c1ccc(C(=O)O)c(O)c1 [Example 7, (trans)-4-(3-(2-chloro-6-bromo-benzylidene)-4-methylindolin-2-on-1-yl)-2-hydroxybenzolic acid] |  | < 100
COc1cccc2c1/C(=C/c1c(Cl)cccc1C1CC1)C(=O)N2c1ccc(C(=O)O)c(O)c1 [Example 8] |  | < 100
Cc1cccc2c1/C(=C/c1c(F)cccc1Cl)C(=O)N2c1ccc(C(=O)O)c(O)c1 [Example 9] |  | < 100
COc1cccc2c1/C(=C/c1c(Cl)cccc1Cl)C(=O)N2c1ccc(C(=O)O)c(O)c1 [Example 11, (trans)-4-(3-(2,6-dichloro-benzylidene)-4-methoxyindolin-2-on-1-yl)-2-hydroxybenzolic acid] | 100 to 1000 | 
O=C(O)c1ccc(N2C(=O)/C(=C\c3c(Cl)cccc3C3CC3)c3c(C4CC4)cccc32)cc1O [Example 12, (trans)-4-(3-(2-chloro-6-cyclopropyl-benzylidene)-4-cyclopropylindolin-2-on-1-yl)-2-hydroxybenzolic acid] |  | < 100
O=C(O)c1ccc(N2C(=O)/C(=C\c3c(Cl)cccc3C3CC3)c3c(-c4ccccc4)cccc32)cc1 [Example 13] | 100 to 1000 | 
O=C(O)c1ccc(N2C(=O)/C(=C\c3c(Cl)cccc3C3CC3)c3c(Cl)cccc32)cc1O [Example 14, 4-(3-(2-chloro-6-cyclopropyl-benzylidene)-4-chloro-indolin-2-on-1-yl)-2-hydroxybenzolic acid] | 100 to 1000 | 
O=C(O)c1ccc(N2C(=O)/C(=C\c3c(Cl)cccc3C3CC3)c3c(F)cccc32)cc1 [Example 16A, (trans)-4-(3-(2-chloro-6-cyclopropyl-benzylidene)-4-fluoro-indolin-2-on-1-yl)-benzoic acid] |  | < 100
O=C(O)c1ccc(N2C(=O)/C(=C\c3c(F)cccc3Cl)c3c(F)cccc32)cc1 [Example 17A, (trans)-4-(3-(2-chloro-6-fluoro-benzylidene)-4-fluoro-indolin-2-on-1-yl)-benzoic acid] | 100 to 1000 | 
O=C(O)c1ccc(N2C(=O)/C(=C/c3c(F)cccc3Cl)c3c(F)cccc32)cc1 [Example 17B, (cis)-4-(3-(2-chloro-6-fluoro-benzylidene)-4-fluoro-indolin-2-on-1-yl)-benzoic acid] | 100 to 1000 | 
O=C(O)c1ccc(N2C(=O)/C(=C\c3c(F)cccc3F)c3c(F)cccc32)cc1 [Example 18A, (trans)-4-(3-(2,6-difluoro-benzylidene)-4-fluoro-indolin-2-on-1-yl)-benzoic acid] | 1000 to 10000 | 
O=C(O)c1ccc(N2C(=O)/C(=C/c3c(F)cccc3F)c3c(F)cccc32)cc1 [Example 18B, (cis)-4-(3-(2,6-difluoro-benzylidene)-4-fluoro-indolin-2-on-1-yl)-benzoic acid] | 1000 to 10000 | 
O=C(O)c1ccc(N2C(=O)/C(=C\c3c(Cl)cccc3C(F)(F)F)c3c(F)cccc32)cc1 [Example 19A, (trans)-4-(3-(2-chloro-6-trifluoromethyl-benzylidene)-4-fluoro-indolin-2-on-1-yl)-benzoic acid] |  | < 100
O=C(O)c1ccc(N2C(=O)/C(=C/c3c(Cl)cccc3C(F)(F)F)c3c(F)cccc32)cc1 [Example 19B, (cis)-4-(3-(2-chloro-6-trifluoromethyl-benzylidene)-4-fluoro-indolin-2-on-1-yl)-benzoic acid] |  | < 100
CCCc1cccc(Cl)c1/C=C1\C(=O)N(c2ccc(C(=O)O)cc2)c2cccc(F)c21 [Example 20A, (trans)-4-(3-(2-chloro-6-n-propyl-benzylidene)-4-fluoro-indolin-2-on-1-yl)-benzoic acid] | 100 to 1000 | 

SMILES | IC50 [nM] | IC50 [1] [nM]
CCCc1cccc(Cl)c1/C=C1/C(=O)N(c2ccc(C(=O)O)cc2)c2cccc(F)c21 [Example 20B, (cis)-4-(3-(2-chloro-6-n-propyl-benzylidene)-4-fluoro-indolin-2-on-1-yl)-benzoic acid] | 100 to 1000 | 
O=C(O)c1ccc(N2C(=O)/C(=C\c3c(Cl)cccc3C3CC3)c3c(F)cccc32)cc1O [Example 21A, (trans)-4-(3-(2-chloro-6-cyclopropyl-benzylidene)-4-fluoro-indolin-2-on-1-yl)-2-hydroxy-benzoic acid] |  | < 100
O=C(O)c1ccc(N2C(=O)/C(=C/c3c(Cl)cccc3C3CC3)c3c(F)cccc32)cc1O [Example 21B, (cis)-4-(3-(2-chloro-6-cyclopropyl-benzylidene)-4-fluoro-indolin-2-on-1-yl)-2-hydroxy-benzoic acid] | 100 to 1000 | 
O=C(O)c1ccc(N2C(=O)/C(=C\c3c(Cl)cccc3Cl)c3c(F)cccc32)cc1O [Example 22A, (trans)-4-(3-(2,6-dichloro-benzylidene)-4-fluoro-indolin-2-on-1-yl)-2-hydroxy-benzoic acid] |  | < 100
O=C(O)c1ccc(N2C(=O)/C(=C/c3c(Cl)cccc3Cl)c3c(F)cccc32)cc1O [Example 22B, (cis)-4-(3-(2,6-dichloro-benzylidene)-4-fluoro-indolin-2-on-1-yl)-2-hydroxy-benzoic acid] |  | < 100
O=C(O)c1ccc(N2C(=O)/C(=C\c3c(Cl)cccc3Cl)c3c(Cl)cccc32)cc1 [Example 23, (trans)-4-(3-(2,6-dichloro-benzylidene)-4-chloro-indolin-2-on-1-yl)-benzoic acid] |  | < 100
Cc1cccc2c1/C(=C/c1c(Cl)cccc1C1CC1)C(=O)N2c1ccc(C(=O)O)c(Cl)c1 [Example 24, (trans)-4-(3-(2-chloro-6-cyclopropyl-benzylidene)-4-methylindolin-2-on-1-yl)-2-chloro-benzoic acid] | 100 to 1000 | 
Cc1cccc2c1/C(=C/c1c(Cl)cccc1C1CC1)C(=O)N2c1ccc(C(=O)O)c(F)c1 [Example 25, (trans)-4-(3-(2-chloro-6-cyclopropyl-benzylidene)-4-methylindolin-2-on-1-yl)-2-fluoro-benzoic acid] | 100 to 1000 | 
Cc1cccc(Cl)c1/C=C1\C(=O)N(c2ccc(C(=O)O)cc2)c2cccc(C)c21 [Example 29, (trans)-4-(3-(2-chloro-6-methyl-benzylidene)-4-methylindolin-2-on-1-yl)-benzoic acid] | 100 to 1000 | 
COc1cccc2c1/C(=C/c1c(Cl)cccc1C1CC1)C(=O)N2c1ccc(C(=O)O)cc1 [Example 30] |  | < 100
COc1cccc2c1/C(=C/c1c(Cl)cccc1Cl)C(=O)N2c1ccc(C(=O)O)cc1 [Example 31, (trans)-4-(3-(2,6-dichloro-benzylidene)-4-methoxyindolin-2-on-1-yl)-benzoic acid] | 1000 to 10000 | 
COc1cccc(Cl)c1/C=C1\C(=O)N(c2ccc(C(=O)O)cc2)c2cccc(C)c21 [Example 32, (trans)-4-(3-(2-chloro-6-methoxy-benzylidene)-4-methylindolin-2-on-1-yl)-benzoic acid] | 1000 to 10000 | 
Cc1cccc2c1/C(=C/c1c(Cl)cccc1C1CC1)C(=O)N2c1ccc(C(=O)O)c(N)c1 [Example 33] | 1000 to 10000 | 
Cc1cccc2c1/C(=C/c1c(Cl)cccc1C1CCC1)C(=O)N2c1ccc(C(=O)O)cc1 [Example 34] |  | < 100
Cc1cccc2c1/C(=C/c1c(Cl)cccc1C1CCC1)C(=O)N2c1ccc(C(=O)O)c(O)c1 [Example 35] | 100 to 1000 | 
Cc1cccc2c1/C(=C/c1c(Cl)cccc1C(C)C)C(=O)N2c1ccc(C(=O)O)c(O)c1 [Example 36, (trans)-4-(3-(2-chloro-6-isopropyl-benzylidene)-4-methylindolin-2-on-1-yl)-2-hydroxybenzolic acid] |  | < 100
CCc1cccc(Cl)c1/C=C1\C(=O)N(c2ccc(C(=O)O)c(O)c2)c2cccc(C)c21 [Example 37, (trans)-4-(3-(2-chloro-6-ethyl-benzylidene)-4-methylindolin-2-on-1-yl)-2-hydroxybenzolic acid] |  | < 100
